The values below come from US10758522B2, “Small molecule analogs of the nemo binding peptide” (THE SCRIPPS RESEARCH INSTITUTE, priority 2015, dated 2020).

Data set [1] can be described thus: Degradation in the presence of serum. The class given is in vitro ADME. The conditions noted are these: data not shown.
A further data set has as its system p-IκBα. In words: Western blot of IκBα phosphorylation after TNF-α. It is filed as cell-based. The following applies: 10 ng/ml TNF-α, 0, 5 and 10 min; 100 μM compound. The protocol: (§1) To confirm that the NBD mimetics reduce IKK activity, the extent of phosphorylation of the IKK target, IκBα, in response to 10 ng/ml of TNF-α was determined by Western blot at 0, 5 and 10 min after TNF-α stimulation. […] To determine if the mimetics also reduce NF-κB DNA binding activity, electrophoretic mobility shift assay (EMSA) was conducted both in vivo and in vitro.
HEK293 cells grown in a 6-well plate at 1×10^6 cells/well were left untreated or treated with 100 μM of ZINC12909780 or ZINC3369392 for 30 min, followed by 10 ng/ml of TNFα for 0, 5 and 10 min. Cells were then harvested for western blot. Cell lysate was prepared in RIPA buffer (20 mM Tris-HCl (pH 7.5), 150 mM NaCl, 1 mM Na^2EDTA, 1 mM EGTA, 1% NP-40, 1% sodium deoxycholate, 2.5 mM sodium pyrophosphate, 1 mM beta-glycerophosphate, 1 mM Na3VO4, 1 μg/ml leupeptin, 1× protease inhibitor cocktails (sigma) and 1× Halt phosphatase inhibitor cocktail (Thermo)). 30 ug of protein was resolved by MINI-PROTEAN TGX 4-15% SDS-PAGE. Blots were blocked in 5% non-fat milk. Primary antibodies were incubated at 4° C. overnight and secondary antibodies were incubated at room temperature for 1 hour. Anti-p-IκBα (1:1000 CST) and anti-IκBα (1:2000 CST) were used to assess NF-κB activation. Anti-GAPDH (1:5000 CST) was used as a loading control.

In data set [2] the test system is NF-κB. In words: Firefly luciferase NF-κB reporter assay in TNF-α-stimulated HEK293 cells. The class given is cell-based. The following applies: for inhibition of TNF-α-induced NF-κB activation (luciferase reporter), in words: 293 NF-κB luciferase reporter cells, 10 ng/ml TNF-α, compound 12909780 at 100 μM. The procedure:
This model was used to screen a subset of the drug-like ZINC 8.0 database set (˜900,000 compounds) (Irwin et al., 2005). We were able to identify 161 hits that matched at least 6 features out of eight of the pharmacophore model. […] Two compounds termed NBDA-1 (Zinc-13) and NBDA-2 (Zinc-5), successfully passed these filters (See FIG. 4) and were purchased for biological testing. The compounds were then tested for ability to inhibit TNF-alpha-mediated induction of NF-κB activity in a 293 cells stably modified with a NF-κB luciferase reporter.
The activation of NF-κB was then quantitated by measuring the level of luciferase activity. […] Also, protein extracts were prepared from the same cells and the level of phospho-IkB determined, a marker of IKK activity.
To test if the small molecules identified by the in silico screen inhibit NF-κB activation, a HEK293 cell line stably expressing a luciferase reporter driven by a synthetic, NF-κB-dependent promoter was utilized. To induce NF-κB activation, cells were treated with 10 ng/ml of TNF-α and harvested three hours post-treatment for analysis of luciferase activity. […] To determine if compound 12909780 inhibited NF-κB in a dose dependent manner, concentrations were tested at 0, 6.25, 25, 50 and 100 μM.
HEK293 cells stably transfected with luciferase reporter plasmid driven by NF-κB were seeded in 96-well plate in triplicate and pretreated with DMSO or varying small molecules at indicated concentration for 30 min, followed by the stimulation of 10 ng/ml of TNFα for 3 hr. Cell were washed with PBS once and harvested in passive lysis buffer. Luciferase assay (Promega) was performed using a luminometer according to the manufacturer's instructions.
For orientation: A reporter such as luciferase makes a cellular process visible.

For a further data set, the system named is mdx mice. The data set can be described thus: Chronic treatment of mdx mice (Duchenne muscular dystrophy model). It is filed as in vivo, mouse. The following applies: chronic treatment with the ZINC compounds. The source says:
Mdx mice develop normally at birth, and then undergo a massive myonecrosis starting at three weeks. Treatment of mdx mice with IKK/NF-kB inhibitors effectively reduces inflammation, block necrosis and increase muscle regeneration. Mdx mice were chronically treated with vehicle, SR12343, SR12460 or 8K-NBD starting from day 21, 3 times/week for 4 weeks. […] To determine if SR12343 and SR12460 improve muscle pathology, tibialis anterior (TA) muscle was stained with hematoxylin and eosin (H&E) to assess inflammatory infiltration, necrosis, central nucleation and fibrosis. […] Fiber size in centrally nucleated and non-centrally nucleated myofibers was also smaller in mice treated with SR12343 and 8K-NBD, indicating active reconstruction of myofiber during the regenerative phase.
To determine muscle strength post-treatment, grip strength test on forelimbs was performed 2 weeks and 4 weeks post-treatment.
HEK293 cells were grown in Dulbecco's Modification of Eagles Medium (with 4.5 g/L glucose and L-glutamine), supplemented with 10% fetal bovine serum, penicillin and streptomycin. Raw264.7 cells were cultured in RPMI-1640 media containing 10% heat-inactivated fetal bovine serum, penicillin and streptomycin. C57BL/10ScSn-Dmd^mdx/J and female C57BL/6 mice were purchased from the Jackson Laboratory. Mice were housed in the animal facilities of Scripps Fla. under constant temperature and humidity. Animal protocols used in this study were approved by Scripps Fla. Institutional Animal Care and Use Committees. Three week-old sex-matched mdx mice were dosed with SR12343 (30 mg/kg), […] (30 mg/kg), 8K-NBD peptide (10 mg/kg) or vehicle by intraperitoneal (i.p.) injection 3 times per week for 4 weeks. Mice were sacrificed at 7 weeks of age by carbon dioxide inhalation and tibialis anterior was collected for histological analysis.
Seven week-old treated or untreated mdx mice were measured for forelimb grip strength using a digital grip strength meter paired with a metal grid (Bioseb). Mice were allowed to grip the metal grid tightly and readings were obtained by gently pulling the tail backward until release. Five sequential measurements were performed and the average force was calculated.
Tissues fixed in 10% neutral buffered formalin (NBF) overnight were imbedded in paraffin. Tissue was sectioned at […] using a microtome. H&E staining was conducted following a standard protocol (REF).

For data set [3], the system named is NF-κB. In words: EMSA of NF-κB DNA binding in C2C12 cells. The class given is cell-based, mouse. The following applies: 200 μM. The procedure: as §1
(§2) Cytoplasmic and nuclear fractions were extracted using the NE-PER nuclear and cytoplasmic extraction reagents (ThermoFisher) according to the manufacturer's instructions. The gel shift assay was performed by following the previously described method (41). In brief, 5 μg of nuclear extract was incubated with gel shift binding buffer and an α-^32P-deoxycytodine triphosphate-radiolabeled NF-κB probe for 20 min at room temperature (MP Biomedicals). The oligonucleotide sequences are as follows: NF-κB template, 5′-[…]-3′; NF-κB annealing, 5′-[…]-3′. The reaction product was separated on a 6% non-denaturing polyacrylamide gel.
In general terms: In EMSA bound probe runs differently from free probe, usually more slowly.

For data set [4], the system named is NF-κB. In words: EMSA of NF-κB DNA binding in skeletal muscle of mdx mice after acute treatment. The class given is in vivo, mouse. The following applies: single ip injection at 10 mg/kg, 1 and 2 hours post-treatment. The protocol: We also tested the compounds for their ability to inhibit NF-κB activity acutely in a murine model of disease. For these experiments, a mouse model of Duchenne muscular dystrophy, which has elevated NF-κB activity in muscle, was treated with Zinc-13 (NBDA-1) and Zinc-5 (NBDA-2) and the level of NF-κB activity determined by gel shift analysis at 1 and 2 hours post-treatment.
as §1, §2

Data set [5] concerns the target T1, IKK complex (IKKß, IKKα and NEMO) (Homo sapiens, UniProt Q9Y6K9).
T1 construct: analyzed by Western blot for the level of co-precipitated NEMO; endogenous in cells; host or cells: 293 (HEK293) cells
The data set can be described thus: Co-immunoprecipitation of NEMO with IKKß in 293 cells. It is filed as cell-based. The following applies: Zinc-5 at 4 hours, Zinc-13 at 1 hour, NBD peptide at 4 hours. An excerpt:
FIG. 8 is a bar graph showing the inhibition of TNFα by NBDA-1 (Zinc-13). […] In addition, we have examined the ability of the compounds to disrupt the IKK complex, comprised of IKKß, IKKα and NEMO.
A non-functional, related compound Zinc-7 had no effect.

A further data set has as its system HEK293 cells. In words: MTT cell viability assay. It is filed as cell-based. The protocol: To identify NBD mimetics with higher biological activity than compound 12909780 or the NBD peptide, we next screened the ZINC 10.0 database (approximately 3.5 million compounds) in silico for structurally similar compounds (24).
Cell viability was calculated by normalizing values to untreated control.
Background: Tetrazolium assays rely on reduction of a dye to a coloured formazan, in cell work by metabolically active cells.

T1 sequence (Q9Y6K9 whole entry, one chain of several): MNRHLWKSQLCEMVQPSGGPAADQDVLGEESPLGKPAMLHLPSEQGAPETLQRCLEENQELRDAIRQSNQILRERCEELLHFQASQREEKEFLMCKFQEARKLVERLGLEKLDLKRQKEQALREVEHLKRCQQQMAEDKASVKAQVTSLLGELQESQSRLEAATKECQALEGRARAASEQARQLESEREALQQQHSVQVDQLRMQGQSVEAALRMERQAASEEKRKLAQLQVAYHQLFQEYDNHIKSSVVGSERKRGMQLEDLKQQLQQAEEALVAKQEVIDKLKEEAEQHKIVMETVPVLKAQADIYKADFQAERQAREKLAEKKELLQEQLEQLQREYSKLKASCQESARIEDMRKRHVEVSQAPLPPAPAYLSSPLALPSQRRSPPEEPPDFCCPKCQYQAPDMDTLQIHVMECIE

`O=C(COC(=O)Cc1ccccc1F)Nc1ccc(Cl)cn1` [ZINC5, 2-(2-fluorophenyl)acetic-acid-[2-[(5-chloro-2-pyridyl)amino]-2-keto-ethyl]-ester]: the “degradation in the presence of serum” value in data set [1] is given as “rapid degradation in the presence of serum”. Also, in the data set on p-IκBα, the “level of phospho-IκBα / phosphorylation of IkB” value is given as “reduced the level of p-IκBα dramatically”. For the same compound, in the data set with NF-κB [2] (0, 6.25, 25, 50 and 100 μM), the “dose-dependent inhibition of TNF-α-induced NF-κB activation, in words” value is “greater extent of inhibitory effect compared to compound 12909780”. The “inhibition of TNF-α-induced NF-κB activation (luciferase reporter), in words” value is on record as “lowered NF-κB activity robustly” with NF-κB [2] (listed as Zinc5) and “able to inhibit TNF-alpha mediated activation of NF-κB, as or more efficiently as the NBD peptide” in the data set with NF-κB [2] (listed as Zinc-5). Also, in the data set on mdx mice, the “therapeutic benefit of chronic treatment of mdx mice” value was “showed no therapeutic benefit”. For the same compound, in the data set on NF-κB [3], the “TNFα-induced NF-κB DNA binding activity (EMSA)” value is “significantly decreased TNFα-induced NF-κB DNA binding activity”. For the same compound, the “NF-κB DNA binding activity in quadriceps of mdx mice” value was “inhibited NF-κB DNA binding activity in quadriceps” with NF-κB [4] (10 mg/kg) and “reduced NF-κB DNA binding activity in the skeletal muscle (quadricep)” in the data set on NF-κB [4] (listed as Zinc-5, 10 mg/kg). Further, the “level of NEMO co-immunoprecipitated with IKKß” value in data set [5] is listed as “reduced the level of co-immunoprecipitated NEMO”. Moreover, the “cell death / toxicity (MTT assay)” value in the data set with HEK293 cells (HEK293, 24 hours) is on record as “less than 10%”. Moreover, in the data set on HEK293 cells (at 50 and 100 μM), the “cell toxicity, in words” value is “no cell toxicity observed”.
